In US20220323455A1, “FUSED HETEROCYCLIC DERIVATIVES AS ANTIVIRAL AGENTS” (priority 2019, published 2022):

test system: HBV; experiment: HBV replication inhibition assay (BDNA assay) in HepG2.2.15 cells; type: cell-based, Hepatitis B virus; details: 6 days, encapsidated HBV DNA in supernatant
How it was run: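 HepG2.2.15 cells were dosed with serially diluted compound (0.5% DMSO), with compound and medium renewed at day 3. Day-6 supernatants were DNase-treated and proteinase K-lysed, and encapsidated HBV DNA was quantified by branched-DNA assay. Percent inhibition was set against DMSO controls and EC50 obtained by nonlinear fit.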

| Compound | EC50 [nM] |
| --- | --- |
| N#CCC1(O)CCC(F)(F)c2c3c(nn2C1)CCN(C(=O)Nc1ccnc(C(F)F)c1F)C3 (single isomer, unassigned) [Example 44, (S*)-8-(Cyanomethyl)-N-(2-(difluoromethyl)-3-fluoropyridin-4-yl)-11,11-difluoro-8-hydroxy-3,4,8,9,10,11-hexahydro-1H-pyrido[4′,3′:3,4]pyrazolo[1,5-a]azepine-2(7H)-carboxamide] | 333 |
| C[C@@H]1Cc2nn3c(c2CN1C(=O)Nc1ccnc(C(F)F)c1F)C(F)(F)CCC(CO)C3 (single isomer, unassigned) [Example 78, (3R,8S*)—N-(2-(Difluoromethyl)-3-fluoropyridin-4-yl)-11,11-difluoro-8-(hydroxymethyl)-3-methyl-3,4,8,9,10,11-hexahydro-1H-pyrido[4′,3′:3,4]pyrazolo[1,5-a]azepine-2(7H)-carboxamide] | 30 |
| C[C@@H]1Cc2nn3c(c2CN1C(=O)Nc1ccc(F)c(C#N)c1)C(F)(F)CCC(F)(CO)C3 (single isomer, unassigned) [Example 111, (3R,8S*)—N-(3-Cyano-4-fluorophenyl)-8,11,11-trifluoro-8-(hydroxymethyl)-3-methyl-3,4,8,9,10,11-hexahydro-1H-pyrido[4′,3′:3,4]pyrazolo[1,5-a]azepine-2(7H)-carboxamide] | 7 |
| C[C@@H]1Cc2nn3c(c2CN1C(=O)Nc1ccnc(Br)c1F)C(F)(F)CCC(O)(CF)C3 (single isomer, unassigned) [Example 87, (3R,8S*)—N-(2-Bromo-3-fluoropyridin-4-yl)-11,11-difluoro-8-(fluoromethyl)-8-hydroxy-3-methyl-3,4,8,9,10,11-hexahydro-1H-pyrido[4′,3′:3,4]pyrazolo[1,5-a]azepine-2(7H)-carboxamide] | 39 |
| CCC1(O)CCC(F)(F)c2c3c(nn2C1)CCN(C(=O)Nc1ccc(F)c(C#N)c1)C3 (single isomer, unassigned) [Example 62, (R*)—N-(3-Cyano-4-fluorophenyl)-8-ethyl-11,11-difluoro-8-hydroxy-3,4,8,9,10,11-hexahydro-1H-pyrido[4′,3′:3,4]pyrazolo[1,5-a]azepine-2(7H)-carboxamide] | 42 |
| O=C(Nc1ccnc(C(F)F)c1F)N1CCc2nn3c(c2C1)C(F)(F)CCC(O)(COCC(F)F)C3 (single isomer, unassigned) [Example 33, (R*)-8-((2,2-Difluoroethoxy)methyl)-N-(2-(difluoromethyl)-3-fluoropyridin-4-yl)-11,11-difluoro-8-hydroxy-3,4,8,9,10,11-hexahydro-1H-pyrido[4′,3′:3,4]pyrazolo[1,5-a]azepine-2(7H)-carboxamide] | 356 |
| C[C@@H]1Cc2nn3c(c2CN1C(=O)Nc1ccnc(Br)c1F)C(F)(F)CC(O)CC3 (single isomer, unassigned) [Example 117, (3R,9S*)—N-(2-Bromo-3-fluoropyridin-4-yl)-11,11-difluoro-9-hydroxyl-3-methyl-3,4,8,9,10,11-hexahydro-1H-pyrido[4′,3′:3,4]pyrazolo[1,5-a]azepine-2(7H)-carboxamide] | 18 |
| C[C@@H]1Cc2nn3c(c2CN1C(=O)Nc1ccnc(Br)c1F)C(F)(F)CC(O)(CF)CC3 (single isomer, unassigned) [Example 129, (3R,9S*)—N-(2-Bromo-3-fluoropyridin-4-yl)-11,11-difluoro-9-(fluoromethyl)-9-hydroxy-3-methyl-3,4,8,9,10,11-hexahydro-1H-pyrido[4′,3′:3,4]pyrazolo[1,5-a]azepine-2(7H)-carboxamide] | 6 |
| C#CC1(O)CCC(F)(F)c2c3c(nn2C1)C[C@@H](C)N(C(=O)Nc1ccnc(Br)c1F)C3 (single isomer, unassigned) [Example 99, (3R,8S*)—N-(2-Bromo-3-fluoropyridin-4-yl)-8-ethynyl-11,11-difluoro-8-hydroxy-3-methyl-3,4,8,9,10,11-hexahydro-1H-pyrido[4′,3′:3,4]pyrazolo[1,5-a]azepine-2(7H)-carboxamide] | 275 |
